Measured values from ChEMBL document CHEMBL6087449, “Identification of an Isoxazole Derivative as an Antitubercular Compound for Targeting the FadD Enzymes of Mycobacterium tuberculosis” (J Med Chem, 2025).
≈ marks a conversion by molar mass, not a printed value. Calls of active or inactive are those of the source. No cut-off for these calls is given here.

Tests used:
[1] = test system: Mycobacterium tuberculosis; assay: Antitubercular activity against Mycobacterium tuberculosis H37Rv assessed as inhibition of bacterial growth incubated for 5 days by Alamar Blue based assay; format: functional, organism-based; settings: for IC50: 120 h
[2] = test system: Mycobacterium tuberculosis; assay: Antitubercular activity against Mycobacterium tuberculosis by alamar blue assay; format: functional
[3] = compound: Oc1c(Br)cc(Br)cc1-c1cc(C(F)(F)F)no1; assay: Binding affinity to Mycobacterium tuberculosis H37Rv recombinant FadD32 assessed as Km in presence of lauric acid by Michaelis-Menten plot analysis
[4] = compound: Oc1c(Br)cc(Br)cc1-c1cc(C(F)(F)F)no1; assay: Binding affinity to Mycobacterium tuberculosis H37Rv recombinant FadD32 assessed as Km in presence of ATP by Michaelis-Menten plot analysis

## Cc1ccc(O)c(-c2cc(C(F)(F)F)no2)c1
[1]
  IC50: 10.5 µg/mL (≈ 43.2 µM)

## Oc1ccc(-c2onc(C(F)(F)F)c2-c2ccc(Cl)cc2)c(O)c1
[1]; time 5.0 day
  Activity: inactive

## COc1ccc(-c2onc(C(F)(F)F)c2-c2ccccc2)c(O)c1
[1]
  IC50: 21.7 µg/mL (≈ 64.7 µM)

## Nc1ncnc2c1ncn2[C@@H]1O[C@H](COS(=O)(=O)NC(=O)c2ccc(O)cc2)[C@@H](O)[C@H]1O
[2]
  MIC: > 800 µM

B1: Long-chain-fatty-acid--AMP ligase FadD32 (Mycobacterium tuberculosis (strain ATCC 25618 / H37Rv)), O53580 (protein)
chain: MFVTGESGMAYHNPFIVNGKIRFPANTNLVRHVEKWAKVRGDKLAYRFLDFSTERDGVARDILWSDFSARNRAVGARLQQVTQPGDRVAILCPQNLDYLISFFGALYSGRIAVPLFDPAEPGHVGRLHAVLDDCAPSTILTTTDSAEGVRKFIRARSAKERPRVIAVDAVPTEVAATWQQPEANEETVAYLQYTSGSTRIPSGVQITHLNLPTNVVQVLNALEGQEGDRGVSWLPFFHDMGLITVLLASVLGHSFTFMTPAAFVRRPGRWIRELARKPGETGGTFSAAPNFAFEHAAVRGVPRDDEPPLDLSNVKGILNGSEPVSPASMRKFFEAFAPYGLKQTAVKPSYGLAEATLFVSTTPMDEVPTVIHVDRDELNNQRFVEVAADAPNAVAQVSAGKVGVSEWAVIVDADTASELPDGQIGEIWLHGNNLGTGYWGKEEESAQTFKNILKSRISESRAEGAPDDALWVRTGDYGTYFKDHLYIAGRIKDLVIIDGRNHYPQDLECTAQESTKALRVGYAAAFSVPANQLPQTVFDDSHAGLKFDPEDTSEQLVIVGERAAGTHKLDHQPIVDDIRAAIAVGHGVTVRDVLLVSAGTIPRTSSGKIGRRACRAAYLDGSLRSGVGSPTVFATSD
[3]
  Km: 139 µM
[4]
  Km: 248 µM
